# Tested on: 966289-007-R4-J1-PDC complex spheroid viability
# Assay: Anticancer human tumor 966289-007-R4-J1-PDC patient-derived pancreatic adenocarcinoma cell line growth inhibition [GQUAD]
# Conditions: for IC50: curve of first compound; for viability, T/C: stronger effect = lower value
# Description: DNA G-quadruplex Stabilizer Agents in Combinations in Complex Spheroids
# A high-throughput screen of multi-cell type tumor spheroids was designed to identify active combinations of DNA G-quadruplex stabilizer agents and targeted small molecules. Complex spheroids include a stromal component modeled by human endothelial cells (HUVEC) and fibroblasts modeled by human mesenchymal stem cells (MSCs). The concentration ranges selected for each drug and investigational agent were based upon clinically achievable concentrations if the clinical Cmax of the agent was known.
# Compounds. The drugs and investigational agents: pidnarulex (CX-5461; NSC782164), APTO-253 (NSC789042), BRACO-19 (NSC847499), peposertib (NSC802822), ceralasertib (NSC780249), elimusertib (NSC800525), camonsertib (NSC841442), AZD-1390 (NSC803789), olaparib (NSC753686), talazoparib (NSC767125), ART-558 (NSC835418), sotorasib (NSC818433), MRTX-1133 (NSC836407), SN-38 (NSC673596), topotecan (NSC609699), etoposide (NSC141540), doxorubicin (NSC123127), gemcitabine (NSC613327), 5-fluorouracil (NSC19893), paclitaxel (NSC125973), vemurafenib (NSC761431), panobinostat (NSC761190), R-306465 (JNJ-16241199; NSC773264), adavosertib (NSC754352), TP-3654 (NSC805149), carboplatin (NSC241240), KSQ-4279 (NSC840948), and staurosporine (NSC755774) were obtained from the National Cancer Institute (NCI) Developmental Therapeutics Program Chemical Repository (34). The FDA-approved anticancer drug set is available from the NCI Developmental Therapeutics Program. […] The stock solutions were prepared in dimethyl sulfoxide (DMSO, Sigma-Aldrich, St. Louis, MO, cat. D2650) at 800-fold the tested concentration and stored at -70 degrees C prior to their use. All drugs and investigational agents were tested over a range starting from a high concentration at or near the clinical Cmax and decreasing in half-log increments. If the clinical Cmax for an agent had not been determined, the highest concentration tested was 10 microM.
# 2.3 Cell Culture. All cells were maintained in an incubator at 37 degrees C and 5% CO2 with 95% humidity. The PDC lines were cultured according to standard operating procedures established by the NCI PDMR. All PDCs were thawed and cultured in Matrigel-coated flasks prepared with a working solution of 1X Ham's F-12 nutrient mix, without supplementation (Invitrogen, cat. 11765054), 100 U/mL penicillin-streptomycin (Invitrogen, cat. 15140122), and 2.5% Matrigel (Corning Inc., cat. 354248) for the first three passages. The 857933-349-R-J2-PDC line was cultured in 6C/Colon 1B media, which includes advanced DMEM/F-12 (Thermo Fisher Scientific, cat. 12634028), 10 mM HEPES (Thermo Fisher Scientific, cat. 15630080), 1X GlutaMAX supplement (Thermo Fisher Scientific, cat. 35050061), 0.1 mg/mL primocin (InvivoGen, cat. ant-pm-2), 10% defined fetal bovine serum, heat inactivated (HyClone Laboratories Inc., cat. SH30070.03HI), 50% L-WRN conditioned media (ATCC, cat. CRL-3276), 1.25 mM N-Acetyl-L-cysteine (Sigma-Aldrich, cat. A9165), 10 mM nicotinamide (Sigma-Aldrich, cat. N0636), 1X B-27 supplement (Thermo Fisher Scientific, cat. 17504044), 1X N-2 supplement (Thermo Fisher Scientific, cat. 17502048), 10 microM Y-27632 dihydrochloride (Tocris Bioscience, cat. 1254), and 50 ng/mL human EGF recombinant protein (Thermo Fisher Scientific, cat. PHG0311). The 485176-168-R4-J1-PDC line was cultured in Panc media, which includes all 6C/Colon 1B media components plus 100 ng/mL human FGF-10 (Thermo Fisher Scientific, cat. 100-26), 500 nM SB-431542 (Selleckchem, cat. S1067), and gastrin (Tocris, cat. 3006).
# […]
# [1] = second compound 0.0316 µM, first compound 0.0316 µM
# [2] = second compound 0.0316 µM, first compound 0.316 µM
# [3] = second compound 0.1 µM, first compound 0.0316 µM
# [4] = second compound 0.1 µM, first compound 0.316 µM
# [5] = second compound 0.316 µM, first compound 0.0316 µM
# [6] = second compound 0.316 µM, first compound 0.316 µM
# [7] = second compound 1 µM, first compound 0.0316 µM
# [8] = second compound 1 µM, first compound 0.316 µM
# [9] = second compound 3.16 µM, first compound 0.0316 µM
# [10] = second compound 3.16 µM, first compound 0.316 µM
# [11] = second compound 10 µM, first compound 0.0316 µM
# [12] = second compound 10 µM, first compound 0.316 µM
# 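Note: spheroids exposed to the agents for seven days before readout.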
# 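Throughout, for viability, T/C: percent viability relative to DMSO vehicle control wells taken as 100%.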
structure (smiles),measurement,setting,value
CCc1c2c(nc3ccc(O)cc13)-c1cc3c(c(=O)n1C2)COC(=O)[C@]3(O)CC + CN(C)c1ccc(Nc2c3ccc(NC(=O)CCN4CCCC4)cc3nc3cc(NC(=O)CCN4CCCC4)ccc23)cc1,IC50,second compound 0.0316 µM,< 0.999 nM
same,IC50,second compound 0.1 µM,< 0.999 nM
same,IC50,second compound 0.316 µM,< 0.999 nM
same,IC50,second compound 1 µM,< 0.999 nM
same,IC50,second compound 3.16 µM,< 0.999 nM
same,IC50,second compound 10 µM,< 0.999 nM
same,"viability, T/C","second compound 0.0316 µM, first compound 0.000999 µM",21.2%
same,"viability, T/C","second compound 0.0316 µM, first compound 0.00316 µM",1.29%
same,"viability, T/C","second compound 0.0316 µM, first compound 0.00999 µM",0.59%
same,"viability, T/C",[1],0.58%
same,"viability, T/C","second compound 0.0316 µM, first compound 0.0999 µM",0.44%
same,"viability, T/C",[2],0.43%
same,"viability, T/C","second compound 0.1 µM, first compound 0.000999 µM",22.3%
same,"viability, T/C","second compound 0.1 µM, first compound 0.00316 µM",1.11%
same,"viability, T/C","second compound 0.1 µM, first compound 0.00999 µM",0.72%
same,"viability, T/C",[3],1.03%
same,"viability, T/C","second compound 0.1 µM, first compound 0.0999 µM",0.43%
same,"viability, T/C",[4],0.56%
same,"viability, T/C","second compound 0.316 µM, first compound 0.000999 µM",18.6%
same,"viability, T/C","second compound 0.316 µM, first compound 0.00316 µM",1.04%
same,"viability, T/C","second compound 0.316 µM, first compound 0.00999 µM",1.15%
same,"viability, T/C",[5],0.5%
same,"viability, T/C","second compound 0.316 µM, first compound 0.0999 µM",0.36%
same,"viability, T/C",[6],0.44%
same,"viability, T/C","second compound 1 µM, first compound 0.000999 µM",22.2%
same,"viability, T/C","second compound 1 µM, first compound 0.00316 µM",1.12%
same,"viability, T/C","second compound 1 µM, first compound 0.00999 µM",0.68%
same,"viability, T/C",[7],0.53%
same,"viability, T/C","second compound 1 µM, first compound 0.0999 µM",1.55%
same,"viability, T/C",[8],0.4%
same,"viability, T/C","second compound 3.16 µM, first compound 0.000999 µM",17.7%
same,"viability, T/C","second compound 3.16 µM, first compound 0.00316 µM",1.42%
same,"viability, T/C","second compound 3.16 µM, first compound 0.00999 µM",0.73%
same,"viability, T/C",[9],0.58%
same,"viability, T/C","second compound 3.16 µM, first compound 0.0999 µM",0.38%
same,"viability, T/C",[10],0.97%
same,"viability, T/C","second compound 10 µM, first compound 0.000999 µM",9.4%
same,"viability, T/C","second compound 10 µM, first compound 0.00316 µM",0.87%
same,"viability, T/C","second compound 10 µM, first compound 0.00999 µM",0.74%
same,"viability, T/C",[11],0.39%
same,"viability, T/C","second compound 10 µM, first compound 0.0999 µM",0.62%
same,"viability, T/C",[12],0.22%
COc1cc(C2c3cc4c(cc3C(OC3OC5COC(C)OC5C(O)C3O)C3COC(=O)C23)OCO4)cc(OC)c1O (centres undefined) + CN(C)c1ccc(Nc2c3ccc(NC(=O)CCN4CCCC4)cc3nc3cc(NC(=O)CCN4CCCC4)ccc23)cc1,IC50,second compound 0.0316 µM,300 nM
same,IC50,second compound 0.1 µM,301 nM
same,IC50,second compound 0.316 µM,271 nM
same,IC50,second compound 1 µM,276 nM
same,IC50,second compound 3.16 µM,270 nM
same,IC50,second compound 10 µM,202 nM
same,"viability, T/C",[1],115%
same,"viability, T/C","second compound 0.0316 µM, first compound 0.1 µM",105%
same,"viability, T/C",[2],46.6%
same,"viability, T/C","second compound 0.0316 µM, first compound 1 µM",9.16%
same,"viability, T/C","second compound 0.0316 µM, first compound 3.16 µM",1.79%
same,"viability, T/C","second compound 0.0316 µM, first compound 10 µM",0.77%
same,"viability, T/C",[3],111%
same,"viability, T/C","second compound 0.1 µM, first compound 0.1 µM",107%
same,"viability, T/C",[4],46.6%
same,"viability, T/C","second compound 0.1 µM, first compound 1 µM",9.53%
same,"viability, T/C","second compound 0.1 µM, first compound 3.16 µM",1.99%
same,"viability, T/C","second compound 0.1 µM, first compound 10 µM",0.86%
same,"viability, T/C",[5],101%
same,"viability, T/C","second compound 0.316 µM, first compound 0.1 µM",104%
same,"viability, T/C",[6],41.9%
same,"viability, T/C","second compound 0.316 µM, first compound 1 µM",5.72%
same,"viability, T/C","second compound 0.316 µM, first compound 3.16 µM",2.08%
same,"viability, T/C","second compound 0.316 µM, first compound 10 µM",0.76%
same,"viability, T/C",[7],104%
same,"viability, T/C","second compound 1 µM, first compound 0.1 µM",109%
same,"viability, T/C",[8],42.4%
same,"viability, T/C","second compound 1 µM, first compound 1 µM",6.82%
same,"viability, T/C","second compound 1 µM, first compound 3.16 µM",1.89%
same,"viability, T/C","second compound 1 µM, first compound 10 µM",1.07%
same,"viability, T/C",[9],96.1%
same,"viability, T/C","second compound 3.16 µM, first compound 0.1 µM",108%
same,"viability, T/C",[10],41.8%
same,"viability, T/C","second compound 3.16 µM, first compound 1 µM",6.04%
same,"viability, T/C","second compound 3.16 µM, first compound 3.16 µM",2.44%
same,"viability, T/C","second compound 3.16 µM, first compound 10 µM",0.87%
same,"viability, T/C",[11],108%
same,"viability, T/C","second compound 10 µM, first compound 0.1 µM",98.1%
same,"viability, T/C",[12],19.4%
same,"viability, T/C","second compound 10 µM, first compound 1 µM",3.24%
same,"viability, T/C","second compound 10 µM, first compound 3.16 µM",1.49%
same,"viability, T/C","second compound 10 µM, first compound 10 µM",0.61%
